Experimental data as given in PMC3258152 (Nucleic Acids Research, 2011).

Target: T1, CkoPE (Candidatus Korarchaeum cryptofilum, UniProt B1L4V6)
T1 sequence (B1L4V6 1-117): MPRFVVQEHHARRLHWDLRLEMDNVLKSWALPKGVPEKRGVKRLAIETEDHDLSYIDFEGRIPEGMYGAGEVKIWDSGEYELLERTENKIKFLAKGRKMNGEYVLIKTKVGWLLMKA
Assay: […]'-resection of […]-labelled D22R2 single strand, urea-PAGE
Type: biochemical

IC50: ~50 mM
Compound: O=P(O)(O)O [phosphate]
